Results published in patent US11826373B2, “Methods for treatment of diseases” (Galera Labs, LLC, priority 2011, dated 2023).

System: Rats
Experiment: Rat GC4419 7-day IV study
Format: in vivo
Procedure: A GLP toxicity study with GC4419 in bicarbonate buffer was performed. Rats (5/sex/group) were administered GC4419 as a 15 minute IV injection (4 mL/kg) at 0, 5, 10 or 15 mg/kg for 7 consecutive days. The control group received bicarbonate buffer. Evaluations for compound-related effects were based on clinical observations, body weight and food consumption. There were no deaths during the study and there were no signs of significant compound effects at any dosage.

[Cl][Mn-5]1234([Cl])[n+]5c6cccc5C[NH+]1[C@H]1CCCC[C@@H]1[NH+]2CC[NH+]3[C@H]1CCCC[C@@H]1[NH+]4C6 (stereo partly drawn) [GC4419]
decrease in body weight (males given 15 mg/kg/day, by Day 8): approximately 10%
mortality (rats, 5, 10 or 15 mg/kg, 7 days): no deaths
NOTEL (rats, males and females, 15 minute IV injection, 7 consecutive days): 15 mg/kg
